Laboratory results reported in US10588919B2, “Materials and methods for the treatment of vascular disease” (THE UNIVERSITY COURT OF THE UNIVERSITY OF EDINBURGH, priority 2015, dated 2020).

Columns and labels:
Type in all cases: cell-based, human
[1] = tested on: LncRNA 2 (SMILR) expression; experiment: MEKK1 and p38 inhibitor studies: LncRNA 2 (SMILR) expression by qRT-PCR in IL1α/PDGF-stimulated HSVSMC; details: 24 h; for LncRNA 2 expression in the presence of IL1 and PDGF: HSVSMC, 60 minute pre-treatment, 10, 15 and 20 μM AZD6244, 5, 10 and 20 uM SB 203580; for induction of SMILR expression in response to PDGF and IL1α: VSMC, 60 min pre-treatment, AZD6244 5, 10 or 15 μM, SB203580
Protocol: For gene expression analysis, cDNA for mRNA analysis was obtained from total RNA using the Multiscribe Reverse Transcriptase (Life technologies, UK). qRT-PCR was performed using Power SYBR green (life technologies, UK) with custom PCR primers (Eurofins, MWG, Ebersberg, Germany) the specificity of these primers was confirmed by performing a melting curve and running their PCR produce on a gel (Table 1-primer sequences). Ubiquitin C (UBC) was selected as housekeeping gene due to its stability across all groups studied. Fold-changes were calculated using the 2^-ΔΔCt method (Livak and Schmittgen 2001-http://www.ncbi.nlm.nih.gov/pubmed/11846609; analysis of relative gene expression data using real-time quantitative PCR and the 2(-Delta Delta C(T)) method. Methods 2001;25;402-8). For inhibitor studies, […] were plated at 1×10^5 cells in 6 well plates and quiesced for 48 h. […] Cells were then stimulated with either 0.2% media or a combination of IL1α and PDGF for 24 hours for RNA quantification or western blot analysis.

[2] = tested on: HAS2; experiment: HAS2 expression by qRT-PCR in HSVSMC; details: SMILR knockdown
Protocol: (§1) For gene expression analysis, cDNA for mRNA analysis was obtained from total RNA using the Multiscribe Reverse Transcriptase (Life technologies, UK). qRT-PCR was performed using Power SYBR green (life technologies, UK) with custom PCR primers (Eurofins, MWG, Ebersberg, Germany) the specificity of these primers was confirmed by performing a melting curve and running their PCR produce on a gel (Table 1—primer sequences). Ubiquitin C (UBC) was selected as housekeeping gene due to its stability across all groups studied. Fold-changes were calculated using the 2^−ΔΔCt method (Livak and Schmittgen 2001—http://www.ncbi.nlm.nih.gov/pubmed/11846609; analysis of relative gene expression data using real-time quantitative PCR and the 2(-Delta Delta C(T)) method. Methods 2001;25;402-8). […] Following the 48 stimulation cells were RNA extracted as described earlier or fixed in 70% ethanol for EdU FACs analysis. EdU incorporation was visualized using Click-iT Alexa Fluor 594 according to the manufacturers protocol (Invitrogen).

[3] = tested on: HAS1; experiment: HAS1 expression by qRT-PCR in HSVSMC; details: SMILR knockdown
Protocol: as §1

[4] = tested on: SMILR; experiment: RNA-FISH of SMILR transcripts in HSVSMC
Source text: Custom RNA-FISH tiled probe sets were generated to all exons of […] FISH utilises “branch tree” technology. Briefly, a target specific probe set, containing 40 oligo probes, hybridises to the target mRNA as 20 oligo pairs. Each oligo pair forms a required platform for assembly of the signal amplification structure (tree) through a series of sequential hybridisation steps. Each fully assembled structure, covers a space of 40-50 nt of the target RNA, and has the capacity for 400-fold signal amplification. Therefore, a typical RNA probe set (containing 20 oligo pairs) has the capacity to generate 8,000-fold signal amplification. Due to this technology the company confirms single-molecule RNA sensitivity, thus each fluorescent signal corresponds to an individual lncRNA molecule. Control SNORD3 and UBC were used as housekeepers to determine spatial location of LncRNA2 (Panomics, Affymetrix). RNA-FISH was performed according to manufacturer's instructions (ViewRNATM cell FISH) with minor modifications for both cell and tissue experiments. For cellular analysis […] were grown on 16mm coverslips to 80% confluency, washed in PBS and fixed in 4% paraformaldehyde supplemented with 1% glacial acetic acid. Following detergent QS permeablisation and 1:6000 protease digest coverslips were incubated with a combination of UBC and LncRNA 2 probe sets or UBC. […]

[5] = tested on: HSVSMC proliferation; experiment: EdU incorporation (proliferation) of HSVSMC stimulated with IL1α/PDGF
[6] = tested on: HAS2-AS1; experiment: HAS2-AS1 expression by qRT-PCR in HSVSMC; details: SMILR knockdown
Protocol: as §1

[7] = tested on: interferon pathway (OAS1, IRF7); experiment: qRT-PCR of interferon response genes OAS1 and IRF7 after dsiRNA; details: dsiRNA off target effects
Protocol: For gene expression analysis, cDNA for mRNA analysis was obtained from total RNA using the Multiscribe Reverse Transcriptase (Life technologies, UK). qRT-PCR was performed using Power SYBR green (life technologies, UK) with custom PCR primers (Eurofins, MWG, Ebersberg, Germany) the specificity of these primers was confirmed by performing a melting curve and running their PCR produce on a gel (Table 1—primer sequences). Ubiquitin C (UBC) was selected as housekeeping gene due to its stability across all groups studied. Fold-changes were calculated using the 2^−ΔΔCt method (Livak and Schmittgen 2001—http://www.ncbi.nlm.nih.gov/pubmed/11846609; analysis of relative gene expression data using real-time quantitative PCR and the 2(-Delta Delta C(T)) method. Methods 2001;25;402-8).

[8] = tested on: ZHX2; experiment: ZHX2 expression by qRT-PCR in HSVSMC; details: SMILR knockdown
Protocol: as §1

[9] = tested on: HAS3; experiment: HAS3 expression by qRT-PCR in HSVSMC; details: SMILR knockdown
Protocol: as §1

[10] = tested on: SMILR (LncRNA 2); experiment: dsiRNA-mediated knockdown of SMILR in HSVSMC, qRT-PCR
Protocol: as §1

Compound | LncRNA 2 expression in the presence of IL1 and PDGF [1] | induction of SMILR expression in response to PDGF and IL1α [1] | HAS2 mRNA levels [2] | HAS2 mRNA levels ([2]; listed as SMILR siRNA) | HAS1 expression [3] | SMILR transcripts (RNA-FISH) [4] | VSMC proliferation reduced (EdU incorporation) ([5]; SMILR knock down with dsiRNA, IL1/PDGF 48 h, vs Si Control) | SMC proliferation following stimulation with IL1/PDGF (EdU incorporation) ([5]; dsiRNA mediated knockdown of LncRNA 2) | HAS2-AS1 lncRNA expression [6] | effect on the interferon pathway (response genes OAS1 and IRF7) [7] | ZHX2 gene expression [8] | HAS3 expression [9] | decrease in SMILR expression compared to dsiControl ([10]; 25 nM dsiRNA, IL1α/PDGF 48 h) | LncRNA 2 (SMILR) expression after dsiRNA transfection ([10]; IL1/PDGF, qRT-PCR)
Cn1cnc2c(F)c(Nc3ccc(Br)cc3Cl)c(C(=O)NOCCO)cc21 [AZD6244] | completely inhibited | prevented the induction |  |  |  |  |  |  |  |  |  |  |  | 
C[S+]([O-])c1ccc(-c2nc(-c3ccncc3)c(-c3ccc(F)cc3)[nH]2)cc1 (stereo not shown) [SB 203580] | completely inhibited | dose-dependent reduction |  |  |  |  |  |  |  |  |  |  |  | 
DsiRNA SMILR: Double stranded dicer substrate siRNA targeting LncRNA 2 (SMILR); probably sense SEQ ID NO: 1, antisense SEQ ID NO: 2 (sense CCAUAAUUUACAUGGAUGUU; antisense UUCCAAACAUCCAUGUAAAUUAUGGAA; listed as RNA, chemistry not fully specified) |  |  | significantly inhibits | significantly altered | no effect | decrease | 56±15% | inhibited | no change | No effect | no change | no effect | 75±24% | significant decrease
